The subject of series [1] is Leishmania donovani. The series is described as follows: Antileishmanial activity against axenic amastigotes of Leishmania donovani LEM-138 (MHOM/IN/00/DEVI) by MTT assay. The class given is functional, organism-based.
Series [2] concerns Leishmania donovani. The series is described as follows: Antileishmanial activity against promastigotes of Leishmania donovani LEM-138 (MHOM/IN/00/DEVI) by MTT assay. Format: functional, organism-based.
In series [3] the test system is Leishmania donovani. The series is described as follows: Ratio of IC50 for promastigotes of Leishmania donovani LEM-138 (MHOM/IN/00/DEVI) to IC50 for axenic amastigotes of Leishmania donovani LEM-138 (MHOM/IN/00/DEVI). Format: functional.
Series [4] in a line: Cytotoxicity against human PBMC assessed as cell killing at IC50 after 48 hrs by MTT assay. The note with it: PBMC (peripheral blood mononuclear cells).
Series [5] can be described thus: Cytotoxicity against human PBMC assessed as cell killing at 2 times IC50 after 48 hrs by MTT assay. The note with it: PBMC (peripheral blood mononuclear cells).
Series [6] has as its system Leishmania donovani. Kind of series: Antileishmanial activity against amastigotes of Leishmania donovani LEM-138 (MHOM/IN/00/DEVI) infected in mouse J774A.1 cells after 72 hrs by Giemsa dye staining. The class given is functional, organism-based. The conditions noted are these: J774.A1, 72 h.

Each structure is given as a SMILES string.

On to `COc1ccc(C(=O)c2cc3cccc(OC)c3oc2=S)cc1`, for which the half-maximal inhibitory concentration (IC50) with Leishmania donovani [1] was found to be 502 µM; with Leishmania donovani [2], 1400 µM. For the same compound, the Ratio IC50 in the series on Leishmania donovani [3] was found to be 2.8. For the same compound, the cell killing at 48 h stood at 16.6% in series [4] and 14.8% in series [5].

Consider `COc1cccc2cc(C(=O)c3ccc(C)cc3)c(=S)oc12`, for which the results for the IC50 in the series with Leishmania donovani [1] and in the series with Leishmania donovani [2] were 446 µM and 744 µM, respectively. In the series on Leishmania donovani [3], the Ratio IC50 stood at 1.7. For the same compound, the cell killing at 48 h in series [4] was 9.4%; in series [5], 33.1%.

In the case of `COc1cccc2cc(C(=O)c3ccc(Cl)cc3)c(=S)oc12`, the half-inhibitory concentration (IC50) with Leishmania donovani [1] was found to be 73 µM; with Leishmania donovani [2], 48 µM; with Leishmania donovani [6], 24 µM. Moreover, the Ratio IC50 in the series on Leishmania donovani [3] amounted to 0.66. The cell killing at 48 h stood at 0.46% in series [4] and 20.2% in series [5].

`COc1ccc(C(=O)c2cc3cc(Br)ccc3oc2=S)cc1`: the half-maximal inhibitory concentration (IC50) in the series on Leishmania donovani [1] came out at 198 µM; in the series with Leishmania donovani [2] it was 450 µM; in the series on Leishmania donovani [6] it was 17 µM. For the same compound, the Ratio IC50 with Leishmania donovani [3] is 2.3. Further, the cell killing at 48 h in series [4] is 32.9%; in series [5], 40.5%.

As to `COc1cccc2cc(C(=O)c3cccs3)c(=S)oc12`, the results for the IC50 in the series on Leishmania donovani [1] and in the series on Leishmania donovani [2] were 927 µM and 4300 µM, respectively. Moreover, the Ratio IC50 in the series on Leishmania donovani [3] stood at 4.6. Besides, the cell killing at 48 h in series [4] stood at 11.1%; in series [5] it was 19.5%.

Regarding `COc1cccc2cc(C(=O)c3ccco3)c(=S)oc12`, the IC50 in the series with Leishmania donovani [1] worked out at 65 µM; in the series with Leishmania donovani [2] it was 1220 µM; in the series on Leishmania donovani [6], 26 µM. The Ratio IC50 in the series with Leishmania donovani [3] amounted to 18.8. The cell killing at 48 h in series [4] came out at 12.3%; in series [5], 26%.

In the case of `O=C(c1ccco1)c1cc2cc(Br)ccc2oc1=S`, the half-inhibitory concentration (IC50) was 524 µM in the series on Leishmania donovani [1] and 1030 µM in the series with Leishmania donovani [2]. Moreover, the Ratio IC50 with Leishmania donovani [3] amounted to 2. Further, the cell killing at 48 h in series [4] is 10.7%; in series [5], 17.6%.

For `O=C(c1cccs1)c1cc2cc(Br)ccc2oc1=S`, the values for the IC50 in the series on Leishmania donovani [1] and with Leishmania donovani [2] were 83 µM and 4630 µM, respectively. Besides, the Ratio IC50 with Leishmania donovani [3] came out at 55.8. For the same compound, the cell killing at 48 h in series [4] amounted to 10.9%; in series [5], 6.66%.

Regarding `COc1ccc(C(=O)c2cc3c(ccc4ccccc43)oc2=S)cc1`, the IC50 in the series with Leishmania donovani [1] was determined as 221 µM; in the series with Leishmania donovani [2], 335 µM. Moreover, the Ratio IC50 with Leishmania donovani [3] worked out at 1.5. The cell killing at 48 h in series [4] is 15.1%; in series [5], 27%.

For `O=C(c1ccco1)c1cc2c(ccc3ccccc32)oc1=S`, the IC50 in the series on Leishmania donovani [1] is 37 µM; in the series with Leishmania donovani [2], 2770 µM. For the same compound, the Ratio IC50 in the series with Leishmania donovani [3] was 75. For the same compound, the cell killing at 48 h in series [4] worked out at 12%; in series [5], 27.8%.

For `O=C(c1cccs1)c1cc2c(ccc3ccccc32)oc1=S`, the concentration for half-maximal inhibition (IC50) was 36 µM in the series with Leishmania donovani [1], 97 µM in the series on Leishmania donovani [2] and 22 µM in the series on Leishmania donovani [6]. For the same compound, the Ratio IC50 in the series with Leishmania donovani [3] came out at 2.7. In addition, the cell killing at 48 h was determined as 28.8% in series [4] and 24.6% in series [5].

In the case of `C[C@@H]1[C@H](O)[C@@H](C)/C=C/C=C/C=C/C=C/C=C/C=C/C=C/[C@H](O[C@@H]2O[C@H](C)[C@@H](O)[C@H](N)[C@@H]2O)C[C@@H]2O[C@](O)(C[C@@H](O)C[C@@H](O)[C@H](O)CC[C@@H](O)C[C@@H](O)CC(=O)O[C@H]1C)C[C@H](O)[C@H]2C(=O)O` [AMPHOTERICIN B], the IC50 in the series on Leishmania donovani [1] came to 0.061 µM; in the series with Leishmania donovani [2], 0.465 µM. Moreover, the cell killing at 48 h in series [4] came out at 16%; in series [5] it was 24.4%.

Values taken from ChEMBL document CHEMBL2046321, “Molecular Docking and in Vitro Antileishmanial Evaluation of Chromene-2-thione Analogues” (ACS Med Chem Lett, 2012).
